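Cells were grown in 96-well plates and exposed to each compound for 48 hours at five concentrations; endpoints were interpolated linearly between bracketing concentrations, or set to the highest concentration if not reached. Abbreviation: GI50, concentration required for 50% inhibition of growth. The concentration for full growth arrest is given as TGI.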
Each compound was assayed on OVCAR-5 ovarian (assay: NCI tumour cell line growth inhibition, 48 h).

| SMILES | GI50 | TGI |
| --- | --- | --- |
| O=[N+]([O-])c1ccc(C=C2C(Cl)=C(Cl)C(Cl)=C2Cl)cc1 | 3.3 µM | > 100 µM |
| Cc1ccc2c(n1)C(=O)c1[nH]c3ccccc3c1C2=O | 2.11 µM | 4.54 µM |
| O=C(OC(=O)n1ccc2ccccc21)n1ccc2ccccc21 | – | > 100 µM |
| C=CC(Br)(CBr)CCC(Cl)C(C)C (stereo unspecified) | – | 5.03 µM |
| CC(=O)Oc1cccc2c(/C=N/NC(N)=S)ncc(C)c12 | – | 22 µM |
| CC(=O)OC1CCC2(C)C3CCC4(C)C(c5ccc(=O)oc5)CC5OC54C3CCC2(O)C1 (stereo unspecified) | – | 22.4 µM |
| Cc1cc(=O)[nH]c(NN2C(Cl)C(=O)C2c2cccc(O)c2)n1 (stereo unspecified) | – | > 100 µM |
| Cc1ccc(S(=O)(=O)Oc2cc(-c3ccccc3)nc3ccccc23)cc1 | – | 62 µM |
| NNC(N)Nc1ccccc1 (stereo unspecified) | – | > 100 µM |
| CC1CC=CC(O)C1 (stereo unspecified) | – | > 100 µM |
| c1ccc(N=C2SC(=NC3CCCCC3)N(C3CCCCC3)C2=Nc2ccccc2)cc1 | – | > 100 µM |
| O=NN(CCCl)C(=O)NC1CCSc2ccccc21 (stereo unspecified) | – | > 100 µM |

What follows are compounds tested on SF-268 CNS (assay: NCI tumour cell line growth inhibition, 48 h).

| SMILES | GI50 | TGI |
| --- | --- | --- |
| O=[N+]([O-])c1ccc(C=C2C(Cl)=C(Cl)C(Cl)=C2Cl)cc1 | 2.01 µM | 4.4 µM |
| COc1ccccc1C1C(C(=O)O)=C(CO)Oc2cc3c(cc21)OCO3 (stereo unspecified) | – | > 100 µM |
| Cc1ccc2c(n1)C(=O)c1[nH]c3ccccc3c1C2=O | 3.82 µM | > 100 µM |
| O=C(OC(=O)n1ccc2ccccc21)n1ccc2ccccc21 | – | > 100 µM |
| C=CC(Br)(CBr)CCC(Cl)C(C)C (stereo unspecified) | – | 3.07 µM |
| Cc1nc(N)sc1-c1ccnc(Nc2ccc(N3CCOCC3)cc2)n1 | 1.54 µM | 50.7 µM |
| CC(=O)Oc1cccc2c(/C=N/NC(N)=S)ncc(C)c12 | – | 17.8 µM |
| CC(=O)OC1CCC2(C)C3CCC4(C)C(c5ccc(=O)oc5)CC5OC54C3CCC2(O)C1 (stereo unspecified) | – | 2.57 µM |
| Cc1cc(=O)[nH]c(NN2C(Cl)C(=O)C2c2cccc(O)c2)n1 (stereo unspecified) | – | > 100 µM |
| Cc1ccc(S(=O)(=O)Oc2cc(-c3ccccc3)nc3ccccc23)cc1 | – | > 100 µM |
| NNC(N)Nc1ccccc1 (stereo unspecified) | – | > 100 µM |
| CC1CC=CC(O)C1 (stereo unspecified) | – | > 100 µM |
| O=NN(CCCl)C(=O)NC1CCSc2ccccc21 (stereo unspecified) | – | > 100 µM |

The compounds below were run on SW-620 colon (assay: NCI tumour cell line growth inhibition, 48 h).

| SMILES | TGI | GI50 |
| --- | --- | --- |
| COc1ccccc1C1C(C(=O)O)=C(CO)Oc2cc3c(cc21)OCO3 (stereo unspecified) | > 100 µM | – |
| Cc1ccc2c(n1)C(=O)c1[nH]c3ccccc3c1C2=O | > 100 µM | 2.97 µM |
| O=C(OC(=O)n1ccc2ccccc21)n1ccc2ccccc21 | > 100 µM | – |
| C=CC(Br)(CBr)CCC(Cl)C(C)C (stereo unspecified) | 3.35 µM | – |
| Cc1nc(N)sc1-c1ccnc(Nc2ccc(N3CCOCC3)cc2)n1 | 24.9 µM | 1.41 µM |
| CC(=O)Oc1cccc2c(/C=N/NC(N)=S)ncc(C)c12 | > 49.7 µM | – |
| CC(=O)OC1CCC2(C)C3CCC4(C)C(c5ccc(=O)oc5)CC5OC54C3CCC2(O)C1 (stereo unspecified) | 4.04 µM | – |
| Cc1cc(=O)[nH]c(NN2C(Cl)C(=O)C2c2cccc(O)c2)n1 (stereo unspecified) | > 100 µM | – |
| Cc1ccc(S(=O)(=O)Oc2cc(-c3ccccc3)nc3ccccc23)cc1 | > 47.3 µM | – |
| NNC(N)Nc1ccccc1 (stereo unspecified) | > 100 µM | – |
| CC1CC=CC(O)C1 (stereo unspecified) | > 100 µM | – |
| O=NN(CCCl)C(=O)NC1CCSc2ccccc21 (stereo unspecified) | > 100 µM | – |

What follows are compounds tested on UACC-62 melanoma (assay: NCI tumour cell line growth inhibition, 48 h).

| SMILES | GI50 | TGI |
| --- | --- | --- |
| O=[N+]([O-])c1ccc(C=C2C(Cl)=C(Cl)C(Cl)=C2Cl)cc1 | 4.24 µM | 24.4 µM |
| COc1ccccc1C1C(C(=O)O)=C(CO)Oc2cc3c(cc21)OCO3 (stereo unspecified) | – | > 100 µM |
| Cc1ccc2c(n1)C(=O)c1[nH]c3ccccc3c1C2=O | 0.557 µM | 1.88 µM |
| O=C(OC(=O)n1ccc2ccccc21)n1ccc2ccccc21 | – | > 100 µM |
| C=CC(Br)(CBr)CCC(Cl)C(C)C (stereo unspecified) | – | 2.98 µM |
| CC(=O)Oc1cccc2c(/C=N/NC(N)=S)ncc(C)c12 | – | 12.3 µM |
| CC(=O)OC1CCC2(C)C3CCC4(C)C(c5ccc(=O)oc5)CC5OC54C3CCC2(O)C1 (stereo unspecified) | – | 6.95 µM |
| Cc1cc(=O)[nH]c(NN2C(Cl)C(=O)C2c2cccc(O)c2)n1 (stereo unspecified) | – | 17.8 µM |
| Cc1ccc(S(=O)(=O)Oc2cc(-c3ccccc3)nc3ccccc23)cc1 | – | 20.7 µM |
| NNC(N)Nc1ccccc1 (stereo unspecified) | – | > 100 µM |
| CC1CC=CC(O)C1 (stereo unspecified) | – | > 100 µM |
| c1ccc(N=C2SC(=NC3CCCCC3)N(C3CCCCC3)C2=Nc2ccccc2)cc1 | – | > 100 µM |
| O=NN(CCCl)C(=O)NC1CCSc2ccccc21 (stereo unspecified) | – | > 100 µM |

The compounds below were run on UO-31 renal (assay: NCI tumour cell line growth inhibition, 48 h).

| SMILES | GI50 | TGI |
| --- | --- | --- |
| O=[N+]([O-])c1ccc(C=C2C(Cl)=C(Cl)C(Cl)=C2Cl)cc1 | 1.47 µM | 3.16 µM |
| COc1ccccc1C1C(C(=O)O)=C(CO)Oc2cc3c(cc21)OCO3 (stereo unspecified) | – | > 100 µM |
| Cc1ccc2c(n1)C(=O)c1[nH]c3ccccc3c1C2=O | 1.63 µM | 10.7 µM |
| O=C(OC(=O)n1ccc2ccccc21)n1ccc2ccccc21 | – | > 100 µM |
| C=CC(Br)(CBr)CCC(Cl)C(C)C (stereo unspecified) | – | 3.08 µM |
| Cc1nc(N)sc1-c1ccnc(Nc2ccc(N3CCOCC3)cc2)n1 | 1.28 µM | > 51.1 µM |
| CC(=O)Oc1cccc2c(/C=N/NC(N)=S)ncc(C)c12 | – | 4.43 µM |
| CC(=O)OC1CCC2(C)C3CCC4(C)C(c5ccc(=O)oc5)CC5OC54C3CCC2(O)C1 (stereo unspecified) | – | 9.38 µM |
| Cc1cc(=O)[nH]c(NN2C(Cl)C(=O)C2c2cccc(O)c2)n1 (stereo unspecified) | – | 24.7 µM |
| Cc1ccc(S(=O)(=O)Oc2cc(-c3ccccc3)nc3ccccc23)cc1 | – | 35.6 µM |
| NNC(N)Nc1ccccc1 (stereo unspecified) | – | > 100 µM |
| CC1CC=CC(O)C1 (stereo unspecified) | – | > 100 µM |
| c1ccc(N=C2SC(=NC3CCCCC3)N(C3CCCCC3)C2=Nc2ccccc2)cc1 | – | > 100 µM |
| O=NN(CCCl)C(=O)NC1CCSc2ccccc21 (stereo unspecified) | – | > 100 µM |

Reference: PubChem BioAssay (NCI)
